Laboratory results taken from patent publication US6297247A, “Sulfonamide inhibitors of matrix metalloproteinases” (priority 2000, dated 2001).
Counter-ions that a name gives are not always drawn.

Tests used:
[1] = target: T1, SCD (stromelysin-1 catalytic domain) (Homo sapiens, UniProt P08254); experiment: Inhibition of stromelysin-1 catalytic domain (SCD), thiopeptolide substrate; type: biochemical; conditions: thiopeptolide substrate Ac-Pro-Leu-Gly-thioester-Leu-Leu-Gly-OEt
T1 construct: SCD (stromelysin-1 catalytic domain)
T1 sequence (P08254 100-272 limits assumed): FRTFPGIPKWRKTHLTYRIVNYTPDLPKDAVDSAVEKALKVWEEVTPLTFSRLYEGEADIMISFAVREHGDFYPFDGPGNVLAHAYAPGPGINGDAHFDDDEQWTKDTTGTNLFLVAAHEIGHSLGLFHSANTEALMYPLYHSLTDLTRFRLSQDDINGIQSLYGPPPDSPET
Protocol: IC50 values were determined using a thiopeptolide substrate, Ac-Pro-Leu-Gly-thioester-Leu-Leu-Gly-OEt (Ye Q.-Z., Johnson L. L., Hupe D. J. and Baragi V., "Purification and Characterization of the Human Stromelysin Catalytic Domain Expressed in Escherichia coli", Biochemistry,1992;31:11231-11235).

[2] = target: GCD (recombinant gelatinase A catalytic domain); experiment: Inhibition of recombinant gelatinase A catalytic domain (GCD), thiopeptolide substrate; type: biochemical; conditions: thiopeptolide substrate Ac-Pro-Leu-Gly-thioester-Leu-Leu-Gly-OEt
[3] = test system: experimental allergic encephalomyelitis (EAE); conditions: in vivo; cited from earlier work
[4] = test system: bovine nasal cartilage; conditions: cited from earlier work
[5] = test system: pig articular cartilage; conditions: cited from earlier work

## COc1cccc(N2CCN(c3ccc(S(=O)(=O)N[C@@H](Cc4ccccc4)C(=O)O)cc3)CC2)c1 [Example 16, (S)-2-{4-[-4-(3-Methoxy-phenyl)-piperazin-1-yl]-benzenesulfonylamino}-3-phenyl-propionic acid]
[1]
  IC50: 0.062 µM
[2]
  IC50: 0.33 µM

## CC(C)CN(CC(=O)O)S(=O)(=O)c1ccc(N2CCC(c3ccccc3)CC2)cc1 [Example 11, {Isobutyl-[4-(4-phenyl-piperidin-1-yl)-benzenesulfonyl]amino}-acetic acid]
[1]
  IC50: 0.17 µM
[2]
  IC50: 3.3 µM

## O=C(O)CCNS(=O)(=O)c1ccc(N2CCC(c3ccccc3)CC2)cc1 [Example 3, 3-[4-(4-Phenyl-piperidin-1-yl)-benzenesulfonylamino]-propionic acid]
[1]
  IC50: 1.24 µM
[2]
  IC50: 4.8 µM

## CC(C)C[C@@H](NS(=O)(=O)c1ccc(N2CCC(c3ccccc3)CC2)cc1)C(=O)O [Example 4, (R)-4-Methyl-2-[4-(4-phenyl-piperidin-1-yl)-benzenesulfonylamino]-pentanoic acid]
[1]
  IC50: 0.036 µM
[2]
  IC50: 0.93 µM

## O=C(O)[C@H](Cc1ccccc1)NS(=O)(=O)c1ccc(N2CCC(c3ccccc3)CC2)cc1 [Example 6, (S)-3-Phenyl-2-[4-(4-phenyl-piperidin-1-yl)-benzenesulfonylamino]-propionic acid]
[2]
  IC50: 0.22 µM

## O=C(O)[C@H](Cc1ccccc1)NS(=O)(=O)c1ccc(N2CCN(c3ccccc3)CC2)cc1 [Example 15, (S)-3-Phenyl-2-[4-(4-phenyl-piperazin-1-yl)-benzenesulfonylamino]-propionicacid]
[1]
  IC50: 0.021 µM
[2]
  IC50: 0.088 µM

## O=C(CNS(=O)(=O)c1ccc(N2CCC(c3ccccc3)CC2)cc1)NO [Example 2, N-Hydroxy-2-[4-(4-phenyl-piperidin-1-yl)-benzenesulfonylamino]-acetamide]
[2]
  IC50: 0.81 µM

## O=C(O)[C@H](Cc1c[nH]c2ccccc12)NS(=O)(=O)c1ccc(N2CCC(c3ccccc3)CC2)cc1 [Example 8, (S)-3-(1H-Indol-3-yl)-2-[4-(4-phenyl-piperidin-1-yl)-benzenesulfonylamino]-propionic acid]
[1]
  IC50: 0.01 µM
[2]
  IC50: 0.32 µM

## CNC(=O)[C@H](Cc1c[nH]c2ccccc12)NC(=O)[C@@H](CC(=O)NO)CC(C)C [GM6001]
[3]
  development or clinical expression of EAE: suppressed the development or reversed the clinical expression of experimental allergic encephalomyelitis (EAE) in a dose dependent manner

## O=C(O)C(CCCc1ccccc1)NS(=O)(=O)c1ccc(N2CCC(c3ccccc3)CC2)cc1 (racemic) [Example 9, (±)-5-Phenyl-2-[4-(4-phenyl-piperidin-1-yl)-benzenesulfonylamino]-pentanoic acid]
[1]
  IC50: 0.3 µM
[2]
  IC50: 0.4 µM

## O=C(O)[C@@H](Cc1ccccc1)NS(=O)(=O)c1ccc(N2CCC(c3ccccc3)CC2)cc1 [Example 7, (R)-3-Phenyl-2-[4-(4-phenyl-piperidin-1-yl)-benzenesulfonylamino]-propionic acid]
[1]
  IC50: 0.012 µM
[2]
  IC50: 0.12 µM

## TIMP-1: natural endogenous inhibitors of MMPs (TIMPS)
[4]
  formation of collagen fragments and proteoglycan fragments: prevented the formation of collagen fragments, but not proteoglycan fragments
[5]
  formation of collagen fragments and proteoglycan fragments: prevented the formation of collagen fragments, but not proteoglycan fragments

## CC(C)C[C@H](NS(=O)(=O)c1ccc(N2CCC(c3ccccc3)CC2)cc1)C(=O)O [Example 5, (S)-4-Methyl-2-[4-(4-phenyl-piperidin-1-yl)-benzenesulfonylamino]-pentanoic acid]
[1]
  IC50: 0.011 µM
[2]
  IC50: 0.084 µM

## COc1ccc(N2CCN(c3ccc(S(=O)(=O)N[C@@H](Cc4ccccc4)C(=O)O)cc3)CC2)cc1 [Example 18, (S)-2-{4-[-4-(4-Methoxy-phenyl)-piperazin-1-yl]-benzenesulfonylamino}-3-phenyl-propionic acid]
[2]
  IC50: 0.033 µM

## O=C(O)CNS(=O)(=O)c1ccc(N2CCC(c3ccccc3)CC2)cc1 [Example 1, [4-(4-Phenyl-piperidin-1-yl)-benzenesulfonylamino]-acetic acid]
[2]
  IC50: 0.21 µM

## O=C(O)[C@H](Cc1ccccc1)NS(=O)(=O)c1ccc(N2CCN(c3cccc(O)c3)CC2)cc1 [Example 17, (S)-2-{4-[-4-(3-Hydroxy-phenyl)-piperazin-1-yl]-benzenesulfonylamino}-3-phenyl-propionic acid hydrobromide]
[1]
  IC50: 0.077 µM
[2]
  IC50: 0.18 µM

## O=C(O)[C@H](Cc1ccc(OCc2ccccc2)cc1)NS(=O)(=O)c1ccc(N2CCC(c3ccccc3)CC2)cc1 [Example 13, (S)-3-(4-Benzyloxy-phenyl)-2-[4-(4-phenyl-piperidin-1-yl)-benzenesulfonylamino]-propionic acid]
[1]
  IC50: 0.19 µM
[2]
  IC50: 5.3 µM

## O=C(O)[C@H](Cc1ccccc1)NS(=O)(=O)c1ccc(N2CCC(Cc3ccccc3)CC2)cc1 [Example 12, (S)-2-[4-(4-Benzyl-piperidin-1-yl)-benzenesulfonylamino]-3-phenyl-propionicacid]
[1]
  IC50: 0.6 µM
[2]
  IC50: 3.2 µM

## O=C(O)CNS(=O)(=O)c1ccc(N2CCN(c3ccccc3)CC2)cc1 [Example 10, [4-(4-Phenyl-piperazin-1-yl)-benzenesulfonylamino]-acetic acid]
[1]
  IC50: 0.05 µM
[2]
  IC50: 0.5 µM

## O=C(O)[C@H](Cc1ccc(O)cc1)NS(=O)(=O)c1ccc(N2CCC(c3ccccc3)CC2)cc1 [Example 14, (S)-3-(4-Hydroxy-phenyl)-2-[4-(4-phenyl-piperidin-1-yl)-benzenesulfonylamino]-propionic acid]
[1]
  IC50: 0.015 µM
[2]
  IC50: 0.13 µM
